Test results published in US8410150B2, “Inhibitors of carnitine palmitoyltransferase and treating cancer” (University Health Network, priority 2007, dated 2013).
Read-outs that look alike come from different tables or passages of the source.

Experiments:
[1] = test system: DU-145; test: Cell growth inhibition, SRB assay; type: cell-based; conditions: Homo sapiens, mean±SD of 2 experiments (FIG. 2)
Method: (§1) Human cancer cells (MCF-7, H358, H460, HCT116 p53^+/+, HCT116 p53^−/−, A172, PC-3, DU-145 and SW626) were maintained in DMEM medium containing 10% Fetal Bovine Serum (FBS) (Invitrogen, Burlington, ON, Canada) and normal cells HMEC, 184A1, NHBE and PrEC were cultured in MEGM, MEGM plus transferring and cholera toxin, BEGM and PrEGM supplemented with various growth factors (Cambrex, Charles city, IA, USA), respectively.
(§2) Compounds were dissolved in DMSO and further diluted in cell culture medium for the experiments performed. Cells were seeded into 96-well plates with 1,500-5,000 cells/well according to cell growth rate. After 24 h, DMEM medium containing 10% FBS were changed to DMEM containing 3% FBS for cancer cells and additional 3% FBS were added into the culture medium for normal cells. The compound was added into the cell culture at the indicated concentrations, and the final concentration of DMSO was adjusted to a final concentration of 0.1%. Cells were subjected to either normoxic condition (20% O2) for 6 days or hypoxic condition (0.2% O2) for 2 days and then transferred to normoxic condition for 4 days. Cell viability was assessed by Sulforhodamine B (SRB) assay at Day 6.
(§3) Sulforhodamine B (SRB) (Sigma, Oakville, ON, Canada) is a water-soluble dye that binds to the basic amino acids of the cellular proteins. Thus, colorimetric measurement of the bound dye provides an estimate of the total protein mass that is related to the cell number. The cells were fixed in situ by gently aspirating off the culture media and adding 50 ul of cold 10% trichloroacetic Acid (TCA) per well and incubated at 4° C. for 30-60 min. The plates were washed five times with water and allowed to air dry for 5 min. 50 ul of 0.4% (w/v) SRB dissolved in 1% (v/v) acetic acid were added into each well, plates were then incubated at RT for 30 min for staining, washed four times with 1% acetic acid to remove any unbound dye and then allowed to air dry for 5 min. Stain was solubilized with 100 ul of 10 mM Tris pH 10.5 per well. Absorbance was read at 570 nm on a spectrophotometer. GI50 (compound concentration required for 50% of growth inhibition) was calculated using GraphPad Prism 4.0 software (GraphPad Software, Inc., San Diego, Calif., USA).

[2] = test system: H460; test: Cell growth inhibition, SRB assay; type: cell-based; conditions: Homo sapiens
Method: as §1, §2, §3

[3] = test system: HCT116 p53+/+; test: Cell growth inhibition, SRB assay; type: cell-based; conditions: Homo sapiens, HCT-116, mean±SD of 2 experiments (FIG. 2)
Method: as §1, §2, §3

[4] = test system: HCT116 p53−/−; test: Cell growth inhibition, SRB assay; type: cell-based; conditions: Homo sapiens, HCT-116, mean±SD of 2 experiments (FIG. 2)
Method: as §1, §2, §3

[5] = test system: HCT116; test: Cell growth inhibition, SRB assay, normoxia and hypoxia; type: cell-based; conditions: Homo sapiens
Method: as §1, §2
(§4) Sulforhodamine B (SRB) (Sigma, Oakville, ON, Canada) is a water-soluble dye that binds to the basic amino acids of the cellular proteins. […] Absorbance was read at 570 nm on a spectrophotometer. […]

[6] = test system: normal cells, including human mammary epithelial cell line 184A1 and human primary epithelial cells HMEC (mammary); NHBE (lung) and PrEC (prostate); test: Growth of normal cells, SRB assay; type: cell-based; conditions: 184A1, HMEC, SRB assay (FIG. 2B)
Method: as §1, §2, §4

[7] = test system: A54; test: Cell growth inhibition, SRB assay; type: cell-based, human; conditions: Homo sapiens; Lung A54, 3% FBS
Method: as §2, §3
(§5) Cell viability of various cell lines treated with 3-carboxy-N,N,N-trimethyl-2-pentadecanamidopropan-1-aminium (“nPAC”) and compound of Examples S7, S63, S66, S90, S89, S67, S75 and S10 was also assessed in a manner as described above in Example 5.

[8] = test system: COLO-205; test: Cell growth inhibition, SRB assay; type: cell-based, human; conditions: Homo sapiens; Colon COLO-205, 3% FBS
Method: as §2, §3, §5

[9] = test system: Caov-3; test: Cell growth inhibition, SRB assay; type: cell-based, human; conditions: Homo sapiens; Ovarian Caov-3, 3% FBS
Method: as §2, §3, §5

[10] = test system: HCT-15; test: Cell growth inhibition, SRB assay; type: cell-based, human; conditions: Homo sapiens; Colon HCT-15, 3% FBS
Method: as §2, §3, §5

[11] = test system: Hs578T; test: Cell growth inhibition, SRB assay; type: cell-based, human; conditions: Homo sapiens, Hs-578T; Breast Hs578T, 3% FBS
Method: as §2, §3, §5

[12] = test system: MDA-231; test: Cell growth inhibition, SRB assay; type: cell-based, human; conditions: Homo sapiens, MDA-MB-231; Breast MDA-231, 3% FBS
Method: as §2, §3, §5

[13] = test system: SW480; test: Cell growth inhibition, SRB assay; type: cell-based, human; conditions: Homo sapiens; Colon SW480, 3% FBS
Method: as §2, §3, §5

[14] = test system: SW620; test: Cell growth inhibition, SRB assay; type: cell-based, human; conditions: Homo sapiens, SW-620; Colon SW620, 3% FBS
Method: as §2, §3, §5

Row | Compound | GI50 [1] | GI50 ([2]; NCI-H460, 144 h, H460, normoxic condition (20% O2) for 6 days, read-out: GI50 Normoxi) | GI50 ([2]; NCI-H460, H460, hypoxic condition (0.2% O2) for 2 days, then normoxic for 4 days, read-out: GI50 Hypoxia) | GI50 ([2]; NCI-H460, SRB assay, mean±SD of 2 experiments (FIG. 2), read-out: GI50 for H460) | GI50 [3] | GI50 [4] | GI50 ([5]; HCT-116, 144 h, normoxic condition (20% O2) for 6 days, read-out: GI50 Normoxi) | GI50 ([5]; HCT-116, hypoxic condition (0.2% O2) for 2 days, then normoxic for 4 days, read-out: GI50 Hypoxia) | growth inhibition of normal cells [6] | GI50 [7] | GI50 [8] | GI50 [9] | GI50 [10] | GI50 [11] | GI50 [12] | GI50 [13] | GI50 [14]
1 | CCCCCCCCc1ccc(NC(=O)N[C@H](CC(=O)[O-])C[N+](C)(C)C)cc1 [Example S7, (R)-3-(3-(4-octylphenyl)ureido)-4-(trimethylammonio)butanoate] | 24 ± 2.8 µM | 8.8 ± 1.2 µM | 2.6 ± 0.6 µM | 8.8 ± 2 µM | 9.3 ± 1.7 µM | 13 ± 0.8 µM | 9.3 ± 0.7 µM | 5.7 ± 0.6 µM | inhibits growth of cancer cells but not normal cells | 25 µM | 0.9 µM | 1.3 µM | 1.3 µM | 33 µM | 27 µM | 0.8 µM | 1.5 µM
2 | CCCCCCCOc1ccc(NC(=O)N[C@H](CC(=O)[O-])C[N+](C)(C)C)cc1 [Example S10, (R)-3-(3-(4-(heptyloxy)phenyl)ureido)-4-(trimethylammonio)butanoate] | – | – | – | – | – | – | – | – | – | > 50 µM | 4.6 µM | 13 µM | 28 µM | > 50 µM | > 50 µM | 9.3 µM | 19 µM
3 | CCCCCCCCCCOc1ccc(C(=O)N[C@H](CC(=O)O)C[N+](C)(C)C)cc1 [Example S63, (R)-3-(4-(decyloxy)benzamido)-4-(trimethylammonio)butanoate 2,2,2-trifluoroacetate] | – | – | – | – | – | – | – | – | – | 14 µM | 0.3 µM | – | 0.5 µM | 3.7 µM | 8.5 µM | 0.4 µM | 0.5 µM
4 | CCCCCCCCCCc1ccc(C(=O)N[C@H](CC(=O)[O-])C[N+](C)(C)C)cc1 [Example S66, (R)-3-(4-decylbenzamido)-4-(trimethylammonio)butanoate] | – | – | – | – | – | – | – | – | – | 28 µM | 0.4 µM | – | 1.1 µM | 8.2 µM | 9.4 µM | 0.3 µM | 0.6 µM
5 | CCCCCCCCCCOc1cccc(C(=O)N[C@H](CC(=O)[O-])C[N+](C)(C)C)c1 [Example S67, (R)-3-(3-(decyloxy)benzamido)-4-(trimethylammonio)butanoate] | – | – | – | – | – | – | – | – | – | 88 µM | 2.7 µM | 0.8 µM | 14 µM | 17 µM | – | 0.7 µM | 5.5 µM
6 | CCCCCCCCCCc1ccc(S(=O)(=O)N[C@H](CC(=O)O)C[N+](C)(C)C)cc1 [Example S75, (R)-3-carboxy-2-(4-decylphenylsulfonamido)-N,N,N-trimethylpropan-1-aminium 2,2,2-trifluoroacetate] | – | – | – | – | – | – | – | – | – | 31 µM | 3.6 µM | – | 5.6 µM | 13 µM | – | 1.9 µM | 4.1 µM
7 | CCCCCCCCCCCCc1ccc(NS(=O)(=O)N[C@H](CC(=O)O)C[N+](C)(C)C)cc1 [Example S89, (R)-3-(N-(4-dodecylphenyl)sulfamoylamino)-4-(trimethylammonio)-butanoate] | – | – | – | – | – | – | – | – | – | 21 µM | 1.4 µM | 1.5 µM | 2.2 µM | 7.3 µM | – | 1.5 µM | 1.9 µM
8 | CCCCCCCCCCCCCCc1ccc(NS(=O)(=O)N[C@H](CC(=O)O)C[N+](C)(C)C)cc1 [Example S90, (R)-3-(N-(4-tetradecylphenyl)sulfamoylamino)-4-(trimethylammonio)-butanoate] | – | – | – | – | – | – | – | – | – | 21 µM | 2.4 µM | 1.6 µM | 3.3 µM | 8.2 µM | – | 1.3 µM | 2.4 µM
